Article PMC2992351 (ACS medicinal chemistry letters, 2010)

Molecular target: Grb2 SH2 domain (Homo sapiens, UniProt P62993)
Experiment: Isothermal titration calorimetry
Assay type: binding
Conditions: for Ka / ΔG^o / ΔH^o / ΔS^o / −TΔS^o: ITC at 298 K, average of at least two experiments; for Ka: association constant

Chain of Grb2 SH2 domain (P62993 60-152 limits assumed): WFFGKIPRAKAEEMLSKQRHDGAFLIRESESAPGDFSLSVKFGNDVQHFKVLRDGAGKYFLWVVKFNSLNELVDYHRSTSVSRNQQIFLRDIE

pYVNG (head to tail) [compound 1]
Ka: (4.7 ± 0.11) × 10^4 M^−1 | ΔG^o: -6.4 ± 0.01 kcal/mol | ΔH^o: -3.5 ± 0.26 kcal/mol | ΔS^o: 9.8 ± 0.20 cal mol^−1K^−1 | −TΔS^o: -2.9 ± 0.06 kcal/mol | fold lower affinity than acyclic control 4 (ITC, macrocycle vs its acyclic control): about 10 fold

pYVNV (head to tail) [compound 2]
Ka: (2.3 ± 0.21) × 10^6 M^−1 | ΔG^o: -8.7 ± 0.06 kcal/mol | ΔH^o: -4.3 ± 0.32 kcal/mol | ΔS^o: 14.8 ± 0.54 cal mol^−1K^−1 | −TΔS^o: -4.4 ± 0.16 kcal/mol

pYVNVP (head to tail) [compound 7]
Ka: (1.0 ± 0.20) × 10^7 M^−1 | ΔG^o: -9.6 ± 0.09 kcal/mol | ΔH^o: -4.3 ± 0.57 kcal/mol | ΔS^o: 17.7 ± 1.20 cal mol^−1K^−1 | −TΔS^o: -5.3 ± 0.36 kcal/mol | difference in binding enthalpies of 7 and 8 (ITC, 7 vs 8): 2 kcal/mol | fold greater affinity than linear control 8 (ITC, macrocycle 7 vs linear control 8): about two-fold
